Reference: patent US9957264B2 (Merck Sharp & Dohme Corp., priority 2013, dated 2018)

Tests used:
[1] = molecular target: JAK1 (recombinant purified GST-tagged catalytic domain) (Homo sapiens (Human), UniProt P23458); assay: Jak Biochemical HTRF Assay (JAK1); conditions: [ATP] 31.8 μM
How it was run: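 HTRF kinase format: compounds pre-equilibrated with recombinant GST-tagged JAK1 or JAK2 catalytic domain, then ATP started a 120 min room-temperature reaction on a common peptide substrate. Phosphopeptide detected via Eu-pY20/streptavidin-Dylight 650 after EDTA quench; percent inhibition versus log concentration fitted (4-parameter) to give IC50.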

[2] = molecular target: JAK2 (recombinant purified GST-tagged catalytic domain) (Homo sapiens (Human), UniProt O60674); assay: Jak Biochemical HTRF Assay (JAK2); conditions: [ATP] 8.5 μM
JAK2 (recombinant purified GST-tagged catalytic domain), sequence (O60674 849-1124): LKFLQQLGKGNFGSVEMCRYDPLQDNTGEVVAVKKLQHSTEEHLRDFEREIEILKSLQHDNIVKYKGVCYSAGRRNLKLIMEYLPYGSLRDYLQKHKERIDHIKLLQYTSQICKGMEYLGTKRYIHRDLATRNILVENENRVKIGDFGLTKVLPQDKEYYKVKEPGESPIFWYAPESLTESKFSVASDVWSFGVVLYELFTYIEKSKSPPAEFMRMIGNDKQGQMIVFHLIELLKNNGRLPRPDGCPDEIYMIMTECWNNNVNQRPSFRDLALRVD

JAK1 (recombinant purified GST-tagged catalytic domain), sequence (P23458 875-1153): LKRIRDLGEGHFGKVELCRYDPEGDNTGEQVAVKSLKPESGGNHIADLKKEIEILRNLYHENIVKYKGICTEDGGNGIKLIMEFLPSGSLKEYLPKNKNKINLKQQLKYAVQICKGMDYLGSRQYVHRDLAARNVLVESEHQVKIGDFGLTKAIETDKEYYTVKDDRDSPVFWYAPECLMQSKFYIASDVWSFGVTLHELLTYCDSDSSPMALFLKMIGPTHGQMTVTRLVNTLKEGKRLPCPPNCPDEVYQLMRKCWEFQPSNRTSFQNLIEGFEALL

Compound	IC50 [1]	IC50 [2]
CC(C)S(=O)(=O)c1ccc(Nc2nn([C@]3(CC#N)CCCOC3)c3cc[nH]c(=O)c23)cc1 [Example 5-179, {(3S)-3-[3-({4-[(1-methylethyl)sulfonyl]phenyl}amino)-4-oxo-4,5-dihydro-1H-pyrazolo[4,3-c]pyridin-1-yl]tetrahydro-2H-pyran-3-yl}acetonitrile]	0.08 nM	0.26 nM
CN(C(C)(C)C)S(=O)(=O)c1ccc(Nc2nn([C@]3(CC#N)CCCOC3)c3cc[nH]c(=O)c23)cc1 [Example 5-182, N-tert-butyl-4-({1-[(3S)-3-(cyanomethyl)tetrahydro-2H-pyran-3-yl]-4-oxo-4,5-dihydro-1H-pyrazolo[4,3-c]pyridin-3-yl}amino)-N-methylbenzenesulfonamide]	0.25 nM	0.57 nM
CC(C)(C)S(=O)(=O)c1ccc(Nc2nn([C@]3(CC#N)CCCOC3)c3cc[nH]c(=O)c23)cc1 [Example 5-183, [(3S)-3-(3-{[4-(tert-butylsulfonyl)phenyl]amino}-4-oxo-4,5-dihydro-1H-pyrazolo[4,3-c]pyridin-1-yl)tetrahydro-2H-pyran-3-yl]acetonitrile]	0.17 nM	0.47 nM
CC(C)(C)NS(=O)(=O)c1ccc(Nc2nn([C@]3(CC#N)CCCOC3)c3cc[nH]c(=O)c23)cc1 [Example 5-184, N-tert-butyl-4-({1-[(3S)-3-(cyanomethyl)tetrahydro-2H-pyran-3-yl]-4-oxo-4,5-dihydro-1H-pyrazolo[4,3-c]pyridin-3-yl}amino) benzenesulfonamide]	0.2 nM	0.6 nM
CC(C)(C)OC(=O)CN1Cc2cc(Nc3nn([C@]4(CC#N)CCCOC4)c4cc[nH]c(=O)c34)ccc2S1(=O)=O [Example 5-185, tert-butyl [5-({1-[(3S)-3-(cyanomethyl)tetrahydro-2H-pyran-3-yl]-4-oxo-4,5-dihydro-1H-pyrazolo[4,3-c]pyridin-3-yl}amino)-1,1-dioxido-1,2-benzisothiazol-2(3H)-yl]acetate]	0.08 nM	1.5 nM
N#CC[C@@]1(n2nc(Nc3ccc(S(=O)(=O)C4CCCC4)cc3)c3c(=O)[nH]ccc32)CCCOC1 [Example 5-191, [(3S)-3-(3-{[4-(cyclopentylsulfonyl)phenyl]amino}-4-oxo-4,5-dihydro-1H-pyrazolo[4,3-c]pyridin-1-yl)tetrahydro-2H-pyran-3-yl]acetonitrile]	0.16 nM	0.52 nM
CC(C)C(C)(C)S(=O)(=O)c1ccc(Nc2nn([C@]3(CC#N)CCCOC3)c3cc[nH]c(=O)c23)cc1 [Example 5-192, {(3S)-3-[4-oxo-3-({4-[(1,1,2-trimethylpropyl)sulfonyl]phenyl}amino)-4,5-dihydro-1H-pyrazolo[4,3-c]pyridin-1-yl]tetrahydro-2H-pyran-3-yl}acetonitrile]	0.17 nM	0.3 nM
N#CC[C@@]1(n2nc(Nc3ccc(S(=O)(=O)C4CCCCC4)cc3)c3c(=O)[nH]ccc32)CCCOC1 [Example 5-193, [(3S)-3-(3-{[4-(cyclohexylsulfonyl)phenyl]amino}-4-oxo-4,5-dihydro-1H-pyrazolo[4,3-c]pyridin-1-yl)tetrahydro-2H-pyran-3-yl]acetonitrile]	0.42 nM	0.66 nM
CCC(C)(C)S(=O)(=O)c1ccc(Nc2nn([C@]3(CC#N)CCCOC3)c3cc[nH]c(=O)c23)cc1 [Example 5-196, {(3S)-3-[3-({4-[(1,1-dimethylpropyl)sulfonyl]phenyl}amino)-4-oxo-4,5-dihydro-1H-pyrazolo[4,3-c]pyridin-1-yl]tetrahydro-2H-pyran-3-yl}acetonitrile]	0.15 nM	0.33 nM
N#CC[C@@]1(n2nc(Nc3ccc4c(c3)CN(C3CCCC3)C4=O)c3c(=O)[nH]ccc32)CCCOC1 [Example 5-197, [(3S)-3-{3-[(2-cyclopentyl-1-oxo-2,3-dihydro-1H-isoindol-5-yl)amino]-4-oxo-4,5-dihydro-1H-pyrazolo[4,3-c]pyridin-1-yl}tetrahydro-2H-pyran-3-yl]acetonitrile]	0.13 nM	1.13 nM
CC1(C)CCCC1S(=O)(=O)c1ccc(Nc2nn([C@]3(CC#N)CCCOC3)c3cc[nH]c(=O)c23)cc1 (stereo partly drawn) [Example 5-202, {(3S)-3-[3-({4-[(2,2-dimethylcyclopentyl)sulfonyl]phenyl}amino)-4-oxo-4,5-dihydro-1H-pyrazolo[4,3-c]pyridin-1-yl]tetrahydro-2H-pyran-3-yl}acetonitrile]	0.39 nM	1.2 nM
CC(C)(C)OC(=O)[C@@H]1CC[C@@](CC#N)(n2nc(Nc3ccc(S(=O)(=O)N4CCOCC4)cc3)c3c(=O)[nH]ccc32)CO1 [Example 5-203, (2S,5S)-tert-butyl 5-(cyanomethyl)-5-(3-((4-(morpholinosulfonyl)phenyl)amino)-4-oxo-4,5-dihydro-1H-pyrazolo[4,3-c]pyridin-1-yl)tetrahydro-2H-pyran-2-carboxylate]	0.15 nM	0.27 nM
N#CC[C@@]1(n2nc(Nc3ccc(S(=O)(=O)N4CCOCC4)cc3)c3c(=O)[nH]ccc32)CCCOC1 [Example 5-204, [(3S)-3-(3-{[4-(morpholin-4-ylsulfonyl)phenyl]amino}-4-oxo-4,5-dihydro-1H-pyrazolo[4,3-c]pyridin-1-yl)tetrahydro-2H-pyran-3-yl]acetonitrile]	0.29 nM	0.48 nM
CC(C)(C)OC(=O)[C@@H]1CC[C@@](CC#N)(n2nc(Nc3ccc4ncccc4c3)c3c(=O)[nH]ccc32)CO1 [Example 5-215, (2S,5S)-tert-butyl 5-(cyanomethyl)-5-(4-oxo-3-(quinolin-6-ylamino)-4,5-dihydro-1H-pyrazolo[4,3-c]pyridin-1-yl)tetrahydro-2H-pyran-2-carboxylate]	0.07 nM	0.63 nM
CC(C)(C)OC(=O)[C@@H]1CC[C@@](CC#N)(n2nc(Nc3ccc4nc(C#N)ccc4c3)c3c(=O)[nH]ccc32)CO1 [Example 5-216, (2S,5S)-tert-butyl 5-(cyanomethyl)-5-(3-((2-cyanoquinolin-6-yl)amino)-4-oxo-4,5-dihydro-1H-pyrazolo[4,3-c]pyridin-1-yl)tetrahydro-2H-pyran-2-carboxylate]	0.14 nM	1.16 nM
Cc1ccc2cc(Nc3nn([C@]4(CC#N)CC[C@@H](C(=O)OC(C)(C)C)OC4)c4cc[nH]c(=O)c34)ccc2n1 [Example 5-217, (2S,5S)-tert-butyl 5-(cyanomethyl)-5-(3-((2-methylquinolin-6-yl)amino)-4-oxo-4,5-dihydro-1H-pyrazolo[4,3-c]pyridin-1-yl)tetrahydro-2H-pyran-2-carboxylate]	0.07 nM	0.77 nM
Cc1cc(C)n(-c2ccc(Nc3nn([C@]4(CC#N)CC[C@@H](C(=O)OC(C)(C)C)OC4)c4cc[nH]c(=O)c34)cc2)n1 [Example 5-218, (2S,5S)-tert-butyl 5-(cyanomethyl)-5-(3-((4-(3,5-dimethyl-1H-pyrazol-1-yl)phenyl)amino)-4-oxo-4,5-dihydro-1H-pyrazolo[4,3-c]pyridin-1-yl)tetrahydro-2H-pyran-2-carboxylate]	0.16 nM	0.73 nM
Cc1cc(Nc2nn([C@]3(CC#N)CC[C@@H](C(=O)OC(C)(C)C)OC3)c3cc[nH]c(=O)c23)ccc1-n1cccn1 [Example 5-219, (2S,5S)-tert-butyl 5-(cyanomethyl)-5-(3-((3-methyl-4-(1H-pyrazol-1-yl)phenyl)amino)-4-oxo-4,5-dihydro-1H-pyrazolo [4,3-c]pyridin-1-yl) tetrahydro-2H-pyran-2-carboxylate]	0.13 nM	1.36 nM
Cc1cc(Nc2nn([C@]3(CC#N)CC[C@@H](C(=O)OC(C)(C)C)OC3)c3cc[nH]c(=O)c23)ccc1C(=O)N1CCOC(C)(C)C1 [Example 5-220, (2S,5S)-tert-butyl 5-(cyanomethyl)-5-(3-((4-(2,2-dimethylmorpholine-4-carbonyl)-3-methylphenyl)amino)-4-oxo-4,5-dihydro-1H-pyrazolo[4,3-c]pyridin-1-yl)tetrahydro-2H-pyran-2-carboxylate]	0.14 nM	0.19 nM
CC(C)(C)OC(=O)[C@@H]1CC[C@@](CC#N)(n2nc(Nc3cnc4ccccc4c3)c3c(=O)[nH]ccc32)CO1 [Example 5-221, (2S,5S)-tert-butyl 5-(cyanomethyl)-5-(4-oxo-3-(quinolin-3-ylamino)-4,5-dihydro-1H-pyrazolo[4,3-c]pyridin-1-yl)tetrahydro-2H-pyran-2-carboxylate]	0.35 nM	5.29 nM
CN(C)c1ccc2cc(Nc3nn([C@]4(CC#N)CC[C@@H](C(=O)OC(C)(C)C)OC4)c4cc[nH]c(=O)c34)ccc2n1 [Example 5-222, (2S,5S)-tert-butyl 5-(cyanomethyl)-5-(3-((2-(dimethylamino)quinolin-6-yl)amino)-4-oxo-4,5-dihydro-1H-pyrazolo[4,3-c]pyridin-1-yl)tetrahydro-2H-pyran-2-carboxylate]	0.13 nM	0.64 nM
CC(C)(C)OC(=O)[C@@H]1CC[C@@](CC#N)(n2nc(Nc3ccc4nc(C(N)=O)ccc4c3)c3c(=O)[nH]ccc32)CO1 [Example 5-223, (2S,5S)-tert-butyl 5-(3-((2-carbamoylquinolin-6-yl)amino)-4-oxo-4,5-dihydro-1H-pyrazolo[4,3-c]pyridin-1-yl)-5-(cyanomethyl)tetrahydro-2H-pyran-2-carboxylate]	0.07 nM	0.82 nM
N#CC[C@@]1(n2nc(Nc3ccc(C4(C(F)(F)F)CC4)cc3)c3c(=O)[nH]ccc32)CCCOC1 [Example 5-224, (S)-2-(3-(4-oxo-3-((4-(1-(trifluoromethyl)cyclopropyl)phenyl)amino)-4,5-dihydro-1H-pyrazolo[4,3-c]pyridin-1-yl)tetrahydro-2H-pyran-3-yl)acetonitrile]	0.36 nM	3 nM
